Measurements: article PMC6162447, “Engineering Gain-of-Function Analogues of the Spider Venom Peptide HNTX-I, A Potent Blocker of the hNaV1.7 Sodium Channel” (Toxins, 2018)
Bridge positions count the residues as written; N and C are the ends. Peptide text beside a SMILES is read from it.

Molecular target: T1, hNaV1.7 (Homo sapiens, UniProt Q15858)
T1 construct: expressed in transfected cells; host or cells: HEK 293
Assay: Whole-cell patch clamp on hNaV1.7 expressed in HEK 293 cells
Type: cell-based
Conditions: for Activity on NaV1.7 at a concentration of 10 µM: 10 µM peptide, HEK 293 cells (Figure 2A–C); for IC50: HEK 293 cells transfected with hNaV1.7 plus human β1 and β2 subunits, room temperature (20–25 °C), 50 ms depolarization to −10 mV from holding −100 mV, mean ± SEM
Experimental: We maintained human embryonic kidney (HEK) 293 cells at 37 °C in a humidified 5% CO2 incubator in Dulbecco’s Modified Eagle’s Medium (DMEM) supplemented with 10% fetal bovine serum (FBS), 2 mM L-glutamine, 100 units/mL penicillin and 100 µg/mL streptomycin. cDNA genes encoding rat Nav1.2 and mouse Nav1.6 were subcloned into the vectors pcDNA3.1, respectively. We subcloned the gene that encodes hNaV1.7 into the vector pcDNA3.1-mod. We transfected the hNaV1.7 channel (3 μg) together with plasmids β1- (1 μg) and β2-eGFP ([…]), which encode the human β1 and β2 subunits, and Nav1.2 and Nav1.6 together with eGFP in HEK 293 cells using Lipofectamine 2000 (Invitrogen, Carlsbad, CA, USA) per the manufacturer’s instructions.
We performed whole-cell recordings using an EPC 10 patch clamp platform (HEKA, Elektronik, Lambrecht, Germany) at room temperature (20–25 °C). We made suction pipettes with access resistance of 2.0–3.0 MΩ from borosilicate glass capillary tubes (VWR micropipettes; VWR Co., West Chester, PA, USA) using a 2-step vertical microelectrode puller (PC-10; Narishige Co., Ltd., Tokyo, Japan) and compensated for voltage errors using 80% serial-resistance compensation. The standard pipette solution contained (in mM): 140 CsCl, 10 NaCl, 1 ethylene glycol-bis (β-aminoethyl ether)-N,N,N′,N′-tetraacetic acid (EGTA), and 10 HEPES (pH 7.4). The bath solution contained (in mM): 140 NaCl, 2 CaCl2, 1 MgCl2, 5 KCl, 20 4-(2-hydroxyethyl)-1-piperazineethanesulfonic acid (HEPES) and 10 glucose (pH 7.4). We purchased all chemicals from Sigma-Aldrich (St. Louis, MO, USA) and dissolved them in water. Data were acquired using PATCHMASTER software version 2x73 (HEKA Elektronik Dr. Schulze GmbH, Lambrecht, Germany). We filtered macroscopic sodium currents at 5 kHz and sampled them at 20 kHz. We acquired voltage clamp recordings 5 min after establishing a whole-cell configuration to allow adequate equilibration between the micropipette solution and the cell interior. We elicited channel current by 50 milliseconds of depolarization potential to −10 mV from the holding voltage of −100 mV.
We analyzed the data using Igor Pro software version 6.10A (WaveMetrics, Lake Oswego, OR, USA), Sigmaplot software version 10 (Sigma, St. Louis, MO, USA), OriginPro software version 8 (OriginLab Corp., Northampton, MA, USA) and Prism software version 5 (GraphPad Software, San Diego, CA, USA). Concentration–response curves were fitted using the following Hill logistic equation:y = fmax − (fmax − fmin)/(1 + (x/IC50)^n)(1) where fmax and fmin respectively represent the channel’s maximum and minimum responses to toxins, fmin was set to 0, x represents toxin concentration and n is an empirical Hill coefficient. All quantitative results are presented as mean ± standard error of the mean (SEM).

T1 sequence (O60939 30-215): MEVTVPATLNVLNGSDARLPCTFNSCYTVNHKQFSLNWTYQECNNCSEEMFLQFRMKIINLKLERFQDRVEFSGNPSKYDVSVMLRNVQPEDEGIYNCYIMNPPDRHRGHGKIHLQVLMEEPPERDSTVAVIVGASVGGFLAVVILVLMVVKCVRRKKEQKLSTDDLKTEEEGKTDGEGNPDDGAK
T1 sequence (Q07699 19-218, further chain): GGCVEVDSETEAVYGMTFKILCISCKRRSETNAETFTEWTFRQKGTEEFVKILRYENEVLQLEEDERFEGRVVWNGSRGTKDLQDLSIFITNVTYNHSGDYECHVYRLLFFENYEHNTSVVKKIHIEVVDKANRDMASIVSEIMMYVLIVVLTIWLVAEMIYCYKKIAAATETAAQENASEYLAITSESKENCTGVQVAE
T1 sequence (Q15858 other isoform, or with tags, fused parts or gaps): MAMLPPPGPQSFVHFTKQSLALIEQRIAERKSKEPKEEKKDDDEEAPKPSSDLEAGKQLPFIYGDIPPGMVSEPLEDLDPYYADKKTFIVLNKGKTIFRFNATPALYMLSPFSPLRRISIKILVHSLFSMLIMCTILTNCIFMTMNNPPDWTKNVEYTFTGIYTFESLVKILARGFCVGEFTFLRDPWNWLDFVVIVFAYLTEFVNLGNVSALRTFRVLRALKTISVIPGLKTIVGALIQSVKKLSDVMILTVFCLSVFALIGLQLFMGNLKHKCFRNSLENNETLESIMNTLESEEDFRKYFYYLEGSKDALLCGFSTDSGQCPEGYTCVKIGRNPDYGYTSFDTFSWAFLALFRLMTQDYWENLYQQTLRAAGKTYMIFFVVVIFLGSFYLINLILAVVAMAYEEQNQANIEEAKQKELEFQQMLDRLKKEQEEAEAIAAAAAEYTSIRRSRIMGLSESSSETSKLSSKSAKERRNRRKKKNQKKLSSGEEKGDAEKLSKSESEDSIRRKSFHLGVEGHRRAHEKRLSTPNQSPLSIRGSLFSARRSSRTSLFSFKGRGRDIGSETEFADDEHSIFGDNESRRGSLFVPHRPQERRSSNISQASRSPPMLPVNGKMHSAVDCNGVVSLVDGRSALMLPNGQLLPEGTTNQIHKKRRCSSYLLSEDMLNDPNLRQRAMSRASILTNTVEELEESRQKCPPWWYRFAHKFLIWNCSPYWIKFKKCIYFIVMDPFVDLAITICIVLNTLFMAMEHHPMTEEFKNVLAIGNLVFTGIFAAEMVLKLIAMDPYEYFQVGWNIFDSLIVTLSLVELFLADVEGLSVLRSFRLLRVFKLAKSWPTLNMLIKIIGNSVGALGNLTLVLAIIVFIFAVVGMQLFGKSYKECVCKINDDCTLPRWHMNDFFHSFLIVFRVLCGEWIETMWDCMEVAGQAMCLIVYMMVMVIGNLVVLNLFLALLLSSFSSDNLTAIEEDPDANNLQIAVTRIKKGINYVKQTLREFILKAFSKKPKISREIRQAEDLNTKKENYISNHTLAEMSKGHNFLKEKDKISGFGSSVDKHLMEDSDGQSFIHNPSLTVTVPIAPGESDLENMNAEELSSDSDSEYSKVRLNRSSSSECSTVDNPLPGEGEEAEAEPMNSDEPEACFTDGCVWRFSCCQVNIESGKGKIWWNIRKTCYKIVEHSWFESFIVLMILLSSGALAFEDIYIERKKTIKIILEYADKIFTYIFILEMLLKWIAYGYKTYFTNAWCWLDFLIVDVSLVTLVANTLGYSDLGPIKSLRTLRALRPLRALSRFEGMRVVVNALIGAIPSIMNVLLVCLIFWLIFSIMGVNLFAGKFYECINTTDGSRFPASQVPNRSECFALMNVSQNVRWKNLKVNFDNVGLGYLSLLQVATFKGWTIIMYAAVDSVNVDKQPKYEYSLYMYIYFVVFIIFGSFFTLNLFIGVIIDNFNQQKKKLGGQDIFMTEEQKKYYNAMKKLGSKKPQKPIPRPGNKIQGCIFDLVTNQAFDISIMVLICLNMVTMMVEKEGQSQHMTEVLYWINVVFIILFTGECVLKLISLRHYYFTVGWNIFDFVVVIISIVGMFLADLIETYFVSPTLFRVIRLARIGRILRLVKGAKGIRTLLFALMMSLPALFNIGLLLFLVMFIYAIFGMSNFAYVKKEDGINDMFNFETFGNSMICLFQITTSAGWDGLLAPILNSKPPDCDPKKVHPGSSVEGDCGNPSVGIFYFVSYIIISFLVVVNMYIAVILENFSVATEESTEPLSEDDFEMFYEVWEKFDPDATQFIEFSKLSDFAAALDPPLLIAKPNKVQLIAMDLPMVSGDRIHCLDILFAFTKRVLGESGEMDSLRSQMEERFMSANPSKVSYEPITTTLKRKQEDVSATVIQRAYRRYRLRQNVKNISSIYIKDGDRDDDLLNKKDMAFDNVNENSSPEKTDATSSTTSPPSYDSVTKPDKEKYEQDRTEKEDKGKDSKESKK

SMILES	Activity on NaV1.7 at a concentration of 10 µM	IC50 (n ≥ 3) [nM]	IC50 (n ≥ 3, SEM) [nM]
CC(C)C[C@H](NC(=O)[C@H](CC(C)C)NC(=O)[C@@H](NC(=O)[C@H](CCCCN)NC(=O)[C@@H]1CSSC[C@@H]2NC(=O)[C@H](CCC(=O)O)NC(=O)[C@H](CC(N)=O)NC(=O)[C@H](CCCCN)NC(=O)CNC(=O)[C@@H]3CCCN3C(=O)[C@H](C(C)C)NC(=O)[C@@H]3CSSC[C@H](NC(=O)[C@H](C)NC(=O)[C@H](Cc4ccc(O)cc4)NC(=O)CNC(=O)[C@H](CO)NC(=O)[C@H](CSSC[C@H](NC(=O)CN)C(=O)N[C@@H](CCCCN)C(=O)NCC(=O)N[C@@H](Cc4ccccc4)C(=O)NCC(=O)N[C@@H](CCCCN)C(=O)N[C@@H](CO)C(=O)N3)NC2=O)C(=O)N[C@@H](CC(N)=O)C(=O)N[C@@H](CO)C(=O)N[C@@H](CCCNC(=N)N)C(=O)N[C@@H](CC(=O)O)C(=O)N[C@@H](CCCCN)C(=O)N[C@@H](Cc2c[nH]c3ccccc23)C(=O)N1)C(C)C)C(=O)O [E1G] (H-GCKGFGKSCVPGKNECCSGYACNSRDKWCKVLL-OH; disulfide 2-17, 9-22, 16-29 (inferred); N-terminus and C-terminus assumed)	negligible activity	> 10000	
CC(C)C[C@H](NC(=O)[C@H](CC(C)C)NC(=O)[C@@H](NC(=O)[C@H](CCCCN)NC(=O)[C@@H]1CSSC[C@@H]2NC(=O)[C@H](CCC(=O)O)NC(=O)[C@H](CC(N)=O)NC(=O)[C@H](CCCCN)NC(=O)CNC(=O)[C@@H]3CCCN3C(=O)[C@H](C(C)C)NC(=O)[C@@H]3CSSC[C@H](NC(=O)[C@H](C)NC(=O)[C@H](Cc4ccc(O)cc4)NC(=O)CNC(=O)[C@H](CO)NC(=O)[C@H](CSSC[C@H](NC(=O)[C@@H](N)CCC(=O)O)C(=O)N[C@@H](CCCCN)C(=O)NCC(=O)N[C@@H](Cc4ccccc4)C(=O)NCC(=O)N[C@@H](CCCCN)C(=O)N[C@@H](CO)C(=O)N3)NC2=O)C(=O)N[C@@H](CO)C(=O)N[C@@H](CO)C(=O)N[C@@H](CCCNC(=N)N)C(=O)N[C@@H](Cc2c[nH]cn2)C(=O)N[C@@H](CCCCN)C(=O)N[C@@H](Cc2c[nH]c3ccccc23)C(=O)N1)C(C)C)C(=O)O [N23S–D26H] (H-ECKGFGKSCVPGKNECCSGYACSSRHKWCKVLL-OH; disulfide 2-17, 9-22, 16-29)			79 ± 4
CC(C)C[C@H](NC(=O)[C@H](CC(C)C)NC(=O)[C@@H](NC(=O)[C@H](CCCCN)NC(=O)[C@@H]1CSSC[C@@H]2NC(=O)[C@H](CCC(=O)O)NC(=O)[C@H](CC(N)=O)NC(=O)[C@H](CCCCN)NC(=O)CNC(=O)[C@@H]3CCCN3C(=O)[C@H](C(C)C)NC(=O)[C@@H]3CSSC[C@H](NC(=O)[C@H](C)NC(=O)[C@H](Cc4ccc(O)cc4)NC(=O)CNC(=O)[C@H](CO)NC(=O)[C@H](CSSC[C@H](NC(=O)CN)C(=O)N[C@@H](CCCCN)C(=O)NCC(=O)N[C@@H](Cc4ccccc4)C(=O)NCC(=O)N[C@@H](CCCCN)C(=O)N[C@@H](CO)C(=O)N3)NC2=O)C(=O)N[C@@H](CO)C(=O)N[C@@H](CO)C(=O)N[C@@H](CCCNC(=N)N)C(=O)N[C@@H](Cc2c[nH]cn2)C(=O)N[C@@H](CCCCN)C(=O)N[C@@H](Cc2c[nH]c3ccccc23)C(=O)N1)C(C)C)C(=O)O [E1G–N23S–D26H] (H-GCKGFGKSCVPGKNECCSGYACSSRHKWCKVLL-OH; disulfide 2-17, 9-22, 16-29)			179 ± 24
CC(C)C[C@H](NC(=O)[C@H](CC(C)C)NC(=O)[C@@H](NC(=O)[C@H](CCCCN)NC(=O)[C@@H]1CSSC[C@@H]2NC(=O)[C@H](CCC(=O)O)NC(=O)[C@H](CC(N)=O)NC(=O)[C@H](CCCCN)NC(=O)CNC(=O)[C@@H]3CCCN3C(=O)[C@H](C(C)C)NC(=O)[C@@H]3CSSC[C@H](NC(=O)[C@H](C)NC(=O)[C@H](Cc4ccc(O)cc4)NC(=O)CNC(=O)[C@H](CO)NC(=O)[C@H](CSSC[C@H](NC(=O)[C@@H](N)CCC(=O)O)C(=O)N[C@@H](CCCCN)C(=O)NCC(=O)N[C@@H](Cc4ccccc4)C(=O)NCC(=O)N[C@@H](CCCCN)C(=O)N[C@@H](CO)C(=O)N3)NC2=O)C(=O)N[C@@H](CC(N)=O)C(=O)N[C@@H](CO)C(=O)N[C@@H](CCCNC(=N)N)C(=O)N[C@@H](Cc2c[nH]cn2)C(=O)N[C@@H](CCCCN)C(=O)N[C@@H](Cc2c[nH]c3ccccc23)C(=O)N1)C(C)C)C(=O)O [D26H] (H-ECKGFGKSCVPGKNECCSGYACNSRHKWCKVLL-OH; disulfide 2-17, 9-22, 16-29)			1500 ± 93
CC(C)C[C@H](NC(=O)[C@H](Cc1c[nH]c2ccccc12)NC(=O)[C@@H](NC(=O)[C@H](CCCCN)NC(=O)[C@@H]1CSSC[C@@H]2NC(=O)[C@H](CCC(=O)O)NC(=O)[C@H](CC(N)=O)NC(=O)[C@H](CCCCN)NC(=O)CNC(=O)[C@@H]3CCCN3C(=O)[C@H](C(C)C)NC(=O)[C@@H]3CSSC[C@H](NC(=O)[C@H](C)NC(=O)[C@H](Cc4ccc(O)cc4)NC(=O)CNC(=O)[C@H](CO)NC(=O)[C@H](CSSC[C@H](NC(=O)[C@@H](N)CCC(=O)O)C(=O)N[C@@H](CCCCN)C(=O)NCC(=O)N[C@@H](Cc4ccccc4)C(=O)NCC(=O)N[C@@H](CCCCN)C(=O)N[C@@H](CO)C(=O)N3)NC2=O)C(=O)N[C@@H](CC(N)=O)C(=O)N[C@@H](CO)C(=O)N[C@@H](CCCNC(=N)N)C(=O)N[C@@H](CC(=O)O)C(=O)N[C@@H](CCCCN)C(=O)N[C@@H](Cc2c[nH]c3ccccc23)C(=O)N1)C(C)C)C(=O)O [L32W] (H-ECKGFGKSCVPGKNECCSGYACNSRDKWCKVWL-OH; disulfide 2-17, 9-22, 16-29 (inferred); N-terminus and C-terminus assumed)	negligible activity	> 10000	
CC(C)C[C@H](NC(=O)[C@H](Cc1c[nH]c2ccccc12)NC(=O)[C@@H](NC(=O)[C@H](CCCCN)NC(=O)[C@@H]1CSSC[C@@H]2NC(=O)[C@H](CCC(=O)O)NC(=O)[C@H](CC(N)=O)NC(=O)[C@H](CCCCN)NC(=O)CNC(=O)[C@@H]3CCCN3C(=O)[C@H](C(C)C)NC(=O)[C@@H]3CSSC[C@H](NC(=O)[C@H](C)NC(=O)[C@H](Cc4ccc(O)cc4)NC(=O)CNC(=O)[C@H](CO)NC(=O)[C@H](CSSC[C@H](NC(=O)[C@@H](N)CCC(=O)O)C(=O)N[C@@H](CCCCN)C(=O)NCC(=O)N[C@@H](Cc4ccccc4)C(=O)NCC(=O)N[C@@H](CCCCN)C(=O)N[C@@H](CO)C(=O)N3)NC2=O)C(=O)N[C@@H](CO)C(=O)N[C@@H](CO)C(=O)N[C@@H](CCCNC(=N)N)C(=O)N[C@@H](Cc2c[nH]cn2)C(=O)N[C@@H](CCCCN)C(=O)N[C@@H](Cc2c[nH]c3ccccc23)C(=O)N1)C(C)C)C(=O)O [N23S–D26H–L32W] (H-ECKGFGKSCVPGKNECCSGYACSSRHKWCKVWL-OH; disulfide 2-17, 9-22, 16-29)			71 ± 5
CC(C)C[C@H](NC(=O)[C@H](CC(C)C)NC(=O)[C@@H](NC(=O)[C@H](CCCCN)NC(=O)[C@@H]1CSSC[C@@H]2NC(=O)[C@H](CCC(=O)O)NC(=O)[C@H](CC(N)=O)NC(=O)[C@H](CCCCN)NC(=O)CNC(=O)[C@@H]3CCCN3C(=O)[C@H](C(C)C)NC(=O)[C@@H]3CSSC[C@H](NC(=O)[C@H](C)NC(=O)[C@H](Cc4ccc(O)cc4)NC(=O)CNC(=O)[C@H](CO)NC(=O)[C@H](CSSC[C@H](NC(=O)[C@@H](N)CCC(=O)O)C(=O)N[C@@H](CCCCN)C(=O)NCC(=O)N[C@@H](Cc4ccccc4)C(=O)NCC(=O)N[C@@H](CCCCN)C(=O)N[C@@H](CO)C(=O)N3)NC2=O)C(=O)N[C@@H](CO)C(=O)N[C@@H](CO)C(=O)N[C@@H](CCCNC(=N)N)C(=O)N[C@@H](CC(=O)O)C(=O)N[C@@H](CCCCN)C(=O)N[C@@H](Cc2c[nH]c3ccccc23)C(=O)N1)C(C)C)C(=O)O [N23S] (H-ECKGFGKSCVPGKNECCSGYACSSRDKWCKVLL-OH; disulfide 2-17, 9-22, 16-29)			435 ± 72
